This note sets out measurements from ChEMBL document CHEMBL1150018, “New reagents for controlled release of nitric oxide. Structure-stability relationships” (Bioorg Med Chem Lett, 1996).

Common to all, as to type: ADME
A short description of data set [1]: Half life was determined. The following applies: rat.
A short description of data set [2]: Kinetic constant log k was determined.
A short description of data set [3]: Rate of decomposition in aqueous solution (pH 8.0, 30 degree Celsius) at 150 min. Conditions: buffer, pH 8, 2.5 h.
The nature of data set [4]: Rate of decomposition in aqueous solution (pH 8.0, 30 degree Celsius) at 190 min. The following applies: buffer, pH 8, 190 min.
Data set [5] can be described thus: Rate of decomposition in aqueous solution (pH 8.0, 30 degree Centigrade) at 5.3 min. Conditions: buffer, pH 8, 318 s.
A short description of data set [6]: Rate of decomposition in aqueous solution (pH 8.0, 30 degree Celsius) at 87 min. Conditions: buffer, pH 8, 1.45 h.
A short description of data set [7]: Rate of decomposition in aqueous solution (pH 8.0, 30 degree Celsius) at 107 min. Conditions: buffer, pH 8, 107 min.
The nature of data set [8]: Rate of decomposition in aqueous solution (pH 8.0, 30 degree Celsius) at 1500 min. Conditions: buffer, pH 8, 25 h.
Data set [9] is described as follows: Rate of decomposition in aqueous solution (pH 8.0, 30 degree Celsius) at 84 min. The following applies: buffer, pH 8, 1.4 h.
Data set [10] in a line: Rate of decomposition in aqueous solution (pH 8.0, 30 degree Celsius) at 35 min. The following applies: buffer, pH 8, 35 min.
Data set [11] can be described thus: Rate of decomposition in aqueous solution (pH 8.0, 30 degree Celsius) at 2.6 min. Conditions: buffer, pH 8, 156 s.
The nature of data set [12]: Rate of decomposition in aqueous solution (pH 8.0, 30 degree Celsius) at 580 min. Conditions: buffer, pH 8, 580 min.
Data set [13] is described as follows: Rate of decomposition in aqueous solution (pH 8.0, 30 degree Celsius) at 2900 min. Conditions: buffer, pH 8, 2900 min.
Data set [14] is described as follows: Rate of decomposition in aqueous solution (pH 8.0, 30 degree Celsius) at 86 min. Conditions: buffer, pH 8, 86 min.
A short description of data set [15]: Rate of decomposition in aqueous solution (pH 8.0, 30 degree Celsius) at 270 min. The following applies: buffer, pH 8, 4.5 h.
Data set [16] is described as follows: Rate of decomposition in aqueous solution (pH 8.0, 30 degree Celsius) at 46 min. The following applies: buffer, pH 8, 46 min.
A short description of data set [17]: Rate of decomposition in aqueous solution (pH 8.0, 30 degree Celsius) at 350 min. The following applies: buffer, pH 8, 350 min.
Data set [18] is described as follows: Rate of decomposition in aqueous solution (pH 8.0, 30 degree Celsius) at 690 min. Conditions: buffer, pH 8, 11.5 h.
Data set [19] in a line: Rate of decomposition in aqueous solution(pH 8.0, 30 degree Celsius)at 350 min. Conditions: buffer, pH 8, 350 min.
Data set [20] is described as follows: Rate of decomposition in aqueous solution (pH 8.0, 30 degree Celsius) at 1800 min. The following applies: buffer, pH 8, 30 h.

On to `CC/C(=C\C(=N\O)C(N)=O)C(CC)[N+](=O)[O-]` (stereo unspecified), for which, in data set [1], the half-life was determined as 2.5 h. In [2], this compound had a Log k of -2.347. Moreover, in data set [3], the k was determined as 0.0045 min⁻¹.
For the compound `CC(C)/C(=C\C(=N\O)C(N)=O)C(C)[N+](=O)[O-]` (stereo unspecified), the half-life in data set [1] turned out to be 3.17 h. This compound displayed a Log k in data set [2] of -2.432. In data set [4], this compound showed a k of 0.0037 min⁻¹.
In the case of `COCC(/C(C)=C/C(CNC(=O)c1cccnc1)=N/O)[N+](=O)[O-]` (stereo unspecified), in data set [1], the half-life came out at 0.0883 h. For the same compound, the Log k in data set [2] is recorded as -0.886. This compound came in with a k in data set [5] of 0.13 min⁻¹.
For the compound `CC(=O)NCC(/C=C1\CCCCC1[N+](=O)[O-])=N\O` (stereo unspecified), in data set [1], the half-life is 1.45 h. The compound further had a k in data set [6] of 0.008 min⁻¹.
As to `CC/C(=C\C(CNC(=O)c1cccnc1)=N\O)C(C)[N+](=O)[O-]` (stereo unspecified), in data set [1], the half-life was found to be 1.78 h. The same compound came in with a Log k in data set [2] of -2.187. This compound gave a k in [7] of 0.0065 min⁻¹.
In turn, `CC/C(=C\C(CNC(C)=O)=N\O)C(C(C)C)[N+](=O)[O-]` (stereo unspecified) gave a half-life in [1] of 25 h. Further, in [2], the Log k was -3.337. This compound also came in with a k in data set [8] of 0.00046 min⁻¹.
`O=C(NCC(/C=C1\CCCCC1[N+](=O)[O-])=N\O)c1cccnc1` (stereo unspecified): the half-life in data set [1] turned out to be 1.4 h. Also, in data set [9], the k came to 0.0083 min⁻¹.
As for `NC(=O)C(/C=C1\CCCCC1[N+](=O)[O-])=N\O` (stereo unspecified), the half-life in [1] came to 0.583 h. For the same compound, in data set [10], the k is 0.02 min⁻¹.
As for `COCC(/C(C)=C/C(=N/O)C(N)=O)[N+](=O)[O-]` (stereo unspecified), the half-life in data set [1] is 0.0433 h. In data set [2], this compound came in with a Log k of 0.569. This compound also displayed a k in [11] of 0.27 min⁻¹.
As to `CC(C)/C(=C\C(CNC(=O)c1cccnc1)=N\O)C(C)[N+](=O)[O-]` (stereo unspecified), the half-life in data set [1] came out at 9.67 h. The same compound gave a Log k in data set [2] of -2.921. Moreover, the k in data set [12] stood at 0.0012 min⁻¹.
In [1], `CC/C(=C\C(=N\O)C(N)=O)C([N+](=O)[O-])C(C)(C)C` (stereo unspecified) had a half-life of 48.3 h. Also, in data set [2], the Log k was -3.62. The compound also had a k in data set [13] of 0.00024 min⁻¹.
Turning to `CC/C(=C\C(CNC(C)=O)=N\O)C(C)[N+](=O)[O-]` (stereo unspecified), the half-life in [1] worked out at 1.43 h. Further, the Log k in [2] is recorded as -2.092. For the same compound, the k in data set [14] was found to be 0.0081 min⁻¹.
In turn, `CC/C(=C\C(CNC(C)=O)=N\O)C(CC)[N+](=O)[O-]` (stereo unspecified) gave a half-life in [1] of 4.5 h. In data set [2], the Log k is given as -2.585. This compound showed a k in data set [15] of 0.0026 min⁻¹.
As for `CC/C(=C\C(=N\O)C(N)=O)C(C)[N+](=O)[O-]` (stereo unspecified), the half-life in data set [1] was 0.767 h. In data set [2], the Log k was -1.824. The same compound displayed a k in [16] of 0.00025 s⁻¹.
`CC/C(=C\C(CNC(=O)c1cccnc1)=N\O)C(CC)[N+](=O)[O-]` (stereo unspecified): in data set [1], the half-life came out at 5.83 h. Besides, the Log k in data set [2] is given as -2.699. This compound also gave a k in [17] of 0.002 min⁻¹.
`CC/C(=C\C(=N\O)C(N)=O)C(C(C)C)[N+](=O)[O-]` (stereo unspecified) displayed a half-life in data set [1] of 11.5 h. The compound also came in with a Log k in [2] of -3. The same compound yielded a k in data set [18] of 0.001 min⁻¹.
`CCC(/C(C)=C/C(CNC(=O)c1cccnc1)=N/O)[N+](=O)[O-]` (stereo unspecified) showed a half-life in data set [1] of 5.83 h. In addition, the Log k in data set [2] is listed as -2.699. The same compound gave a k in [19] of 0.002 min⁻¹.
In data set [1], `CC/C(=C\C(CNC(=O)c1cccnc1)=N\O)C(C(C)C)[N+](=O)[O-]` (stereo unspecified) registered a half-life of 30 h. This compound also had a Log k in data set [2] of -3.42. Besides, the k in [20] was 0.00038 min⁻¹.

As a reminder, the half-life is the time in which the quantity being followed falls by half. The low end stands for rapid decline, the high end for slow decline.
